This note sets out measurements from ChEMBL document CHEMBL1201862, “PubChem BioAssay data set” (2004).

Test systems include OVCAR-4; EKVX; SNB-75; M14; LOX IMVI; NCI-H460; MOLT-4; TK-10; BT-549; T47D; OVCAR-5; IGROV-1; RPMI-8226; SK-OV-3; CAKI-1; KM12; CCRF-CEM; NCI-H226; NCI/ADR-RES.
What all share (assay): NCI-60 cell line screen, 48 h

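Test compounds were applied to cells in 96-well plates for 48 hours at 5 doses. Here, GI50 denotes the concentration required for 50% inhibition of growth.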 Activity calls are given as the source filed them. Cut-off read from the data, not from the text of the source: active = GI50 up to about 1.1 µM and inactive = higher.

As for `Nc1nc(=O)c2c([nH]1)NCC(CCNc1ccc(C(=O)O)cc1)N2` (stereo not drawn), the GI50 in the assay with OVCAR-4, with EKVX, in the assay with SNB-75, with M14, in the assay with LOX IMVI and with NCI-H460 was > 100 µM (inactive) in each case. In addition, the GI50 with MOLT-4, in the assay on TK-10, in the assay with BT-549, in the assay with T47D, in the assay with OVCAR-5 and with IGROV-1 was > 100 µM (inactive) throughout. The GI50 in the assay on RPMI-8226, in the assay with SK-OV-3, with CAKI-1, with KM12, in the assay on CCRF-CEM and in the assay on NCI-H226 was > 100 µM (inactive) each time. For the same compound, the GI50 in the assay on NCI/ADR-RES is > 100 µM (inactive).

As for `C[N+]12CCCCC1C(CN1C(=O)Cc3c4ccccc4c(c4ccccc34)CC1=O)CCC2` (stereo not drawn), the GI50 with OVCAR-4, in the assay on EKVX, in the assay on SNB-75, in the assay on M14, with LOX IMVI and in the assay with NCI-H460 was > 100 µM (inactive) throughout. The GI50 in the assay on MOLT-4, with TK-10, with BT-549, in the assay on T47D, in the assay with OVCAR-5 and in the assay with IGROV-1 was > 100 µM (inactive) each time. Also, the GI50 with RPMI-8226, in the assay with SK-OV-3, in the assay with CAKI-1, with KM12, with CCRF-CEM and in the assay with NCI-H226 was > 100 µM (inactive) throughout. Besides, the GI50 with NCI/ADR-RES was > 100 µM (inactive).

Regarding `CCCCCCCCCCCCCCC[C@@H](O)C[N+](C)(C)CCO`, the GI50 was 4.2 µM (inactive) in the assay with OVCAR-4; 8.77 µM (inactive) with EKVX; 0.597 µM (active) in the assay on SNB-75; 3.62 µM (inactive) in the assay with M14; 2.07 µM (inactive) in the assay on LOX IMVI; 1.52 µM (inactive) in the assay on NCI-H460. Moreover, the GI50 is 2.17 µM (inactive) in the assay with MOLT-4; 1.31 µM (inactive) with TK-10; 0.759 µM (active) in the assay with BT-549; 6.82 µM (inactive) in the assay with T47D; 2.24 µM (inactive) in the assay on OVCAR-5; 0.434 µM (active) in the assay on IGROV-1. In addition, the GI50 in the assay with RPMI-8226 was 2.21 µM (inactive); in the assay with SK-OV-3 it was 7.76 µM (inactive); in the assay with CAKI-1, 0.977 µM (active); in the assay with KM12, 0.841 µM (active); in the assay with CCRF-CEM, 1.25 µM (inactive); with NCI-H226 it was 2.79 µM (inactive). The GI50 in the assay with NCI/ADR-RES is 13.6 µM (inactive).

Turning to `COC(=O)C1SC[C@H]2C(=O)N(c3ccccc3)C(=O)N12` (stereo partly drawn), the GI50 with OVCAR-4, with EKVX, with SNB-75, with M14, in the assay with LOX IMVI and with NCI-H460 was > 100 µM (inactive) in each case. Moreover, the GI50 with MOLT-4, in the assay with TK-10, with BT-549, with T47D, in the assay with OVCAR-5 and with IGROV-1 was > 100 µM (inactive) throughout. Also, the GI50 with RPMI-8226, in the assay with SK-OV-3, with CAKI-1, with KM12, with CCRF-CEM and in the assay with NCI-H226 was > 100 µM (inactive) each time. For the same compound, the GI50 in the assay on NCI/ADR-RES was > 100 µM (inactive).

Regarding `Cc1ccc(-c2cc(O)c3nc4ccccc4n3c2)cc1`, the GI50 is > 100 µM (inactive) in the assay on OVCAR-4; > 100 µM (inactive) in the assay with EKVX; > 100 µM (inactive) with SNB-75; > 100 µM (inactive) in the assay on M14; 75 µM (inactive) in the assay with LOX IMVI; 60.8 µM (inactive) with NCI-H460. Further, the GI50 in the assay on MOLT-4, in the assay on TK-10, in the assay with BT-549, in the assay on T47D, in the assay with IGROV-1 and in the assay on RPMI-8226 was > 100 µM (inactive) each time. Further, the GI50 with SK-OV-3, in the assay with CAKI-1, with KM12, in the assay on CCRF-CEM, in the assay on NCI-H226 and in the assay on NCI/ADR-RES was > 100 µM (inactive) in each case.

Regarding `O=C1C(C(c2ccc([N+](=O)[O-])cc2)N2CCOCC2)=C(O)C(c2ccccc2)N1c1ccccc1` (stereo not drawn), the GI50 in the assay on OVCAR-4 was > 10 µM (inactive); in the assay on EKVX, > 10 µM (inactive); in the assay with SNB-75, 6.14 µM (inactive); in the assay with M14 it was > 10 µM (inactive); in the assay on LOX IMVI, > 10 µM (inactive); with NCI-H460, > 10 µM (inactive). The GI50 with MOLT-4, with TK-10, in the assay on BT-549, in the assay on T47D, in the assay with OVCAR-5 and in the assay with IGROV-1 was > 10 µM (inactive) throughout. In addition, the GI50 with RPMI-8226, in the assay with SK-OV-3, with CAKI-1, in the assay on KM12, in the assay with CCRF-CEM and in the assay on NCI-H226 was > 10 µM (inactive) throughout. Also, the GI50 with NCI/ADR-RES is > 10 µM (inactive).

With `COC(=O)[C@H](C)NC(=O)[C@H](NS(=O)(=O)c1nc2ccccc2s1)c1ccccc1`, the GI50 in the assay on OVCAR-4 was 26.2 µM (inactive); in the assay with EKVX it was 47.6 µM (inactive); in the assay with SNB-75 it was 18.6 µM (inactive); with M14 it was 10.4 µM (inactive); in the assay with LOX IMVI, 15.6 µM (inactive); in the assay with NCI-H460 it was 24.9 µM (inactive). Moreover, the GI50 with MOLT-4 is 29 µM (inactive); with TK-10, 58.1 µM (inactive); in the assay on BT-549, 34.7 µM (inactive); with T47D, 15.3 µM (inactive); in the assay on IGROV-1, 49.3 µM (inactive); in the assay with RPMI-8226, 31 µM (inactive). The GI50 was 33.2 µM (inactive) with SK-OV-3; 32.4 µM (inactive) in the assay with CAKI-1; 14 µM (inactive) in the assay on KM12; 34.4 µM (inactive) with CCRF-CEM; 14.5 µM (inactive) in the assay with NCI-H226; 30.3 µM (inactive) with NCI/ADR-RES.

As to `Cc1ccc(S(=O)(=O)Oc2cc(S(=O)(=O)O)cc3cc(S(=O)(=O)O)cc(N)c23)cc1`, the GI50 with OVCAR-4, in the assay with EKVX, in the assay on SNB-75, in the assay with M14, with LOX IMVI and in the assay on NCI-H460 was > 100 µM (inactive) each time. Moreover, the GI50 in the assay on TK-10, in the assay with BT-549, in the assay on T47D, with OVCAR-5, in the assay on IGROV-1 and in the assay on RPMI-8226 was > 100 µM (inactive) throughout. In addition, the GI50 with SK-OV-3, in the assay on CAKI-1, in the assay on KM12, in the assay on CCRF-CEM, with NCI-H226 and in the assay with NCI/ADR-RES was > 100 µM (inactive) each time.

`COC(=O)C1(Cc2ccccc2)Cc2cc3c(cc2C1O)CCC3` (stereo not drawn): the GI50 in the assay with OVCAR-4 is 15 µM (inactive); in the assay with EKVX, 22.9 µM (inactive); in the assay on SNB-75 it was 34.8 µM (inactive); in the assay with LOX IMVI, 19.1 µM (inactive); in the assay on NCI-H460 it was 30.1 µM (inactive); in the assay with MOLT-4 it was 17.5 µM (inactive). Besides, the GI50 in the assay with TK-10 is 25.9 µM (inactive); in the assay with BT-549 it was 15.5 µM (inactive); with T47D, 28.5 µM (inactive); with OVCAR-5, 13.6 µM (inactive); with IGROV-1, 15.8 µM (inactive); in the assay on RPMI-8226, 22.7 µM (inactive). The GI50 in the assay with SK-OV-3 was 17 µM (inactive); in the assay on CAKI-1, 11.6 µM (inactive); in the assay with KM12, 21.3 µM (inactive); in the assay on CCRF-CEM, 16.1 µM (inactive); in the assay with NCI-H226, 19.5 µM (inactive); in the assay on NCI/ADR-RES, 18.4 µM (inactive).

Turning to `O=c1/c(=C/c2ccccn2)sc2nc3cc4c(cc3n12)OCCO4`, the GI50 with OVCAR-4 is > 100 µM (inactive); in the assay on SNB-75, 91.8 µM (inactive); with M14, > 100 µM (inactive); with LOX IMVI, > 100 µM (inactive); with NCI-H460, > 100 µM (inactive); in the assay on MOLT-4, > 100 µM (inactive). In addition, the GI50 in the assay with TK-10, with BT-549, in the assay with T47D, in the assay with OVCAR-5, with IGROV-1 and in the assay with RPMI-8226 was > 100 µM (inactive) each time. Also, the GI50 in the assay with SK-OV-3, in the assay on CAKI-1, in the assay on KM12, in the assay on CCRF-CEM, with NCI-H226 and in the assay on NCI/ADR-RES was > 100 µM (inactive) each time.

As to `CC(/C=N/N(C)C1=NCCCN1)=N/N(C)C1=NCCCN1`, the GI50 with OVCAR-4, in the assay with EKVX, with SNB-75, in the assay with LOX IMVI, with NCI-H460 and in the assay on MOLT-4 was > 100 µM (inactive) throughout. The GI50 in the assay with TK-10, in the assay on BT-549, in the assay with T47D, with OVCAR-5, with IGROV-1 and with RPMI-8226 was > 100 µM (inactive) throughout. Moreover, the GI50 in the assay on SK-OV-3, with CAKI-1, in the assay with KM12, in the assay with CCRF-CEM, in the assay with NCI-H226 and in the assay with NCI/ADR-RES was > 100 µM (inactive) each time.
